Results as given in ChEMBL document CHEMBL5579888, “A Comparative Study on the DNA Interactions and Biological Activities of Benzophenanthridine and Protoberberine Alkaloids” (J Nat Prod, 2024).
The source made the active and inactive calls. The calls are words filed in the database; no cut-off is given here.

How the values were obtained:
Quadruplex DNA [1] = assay: Displacement of ThT from human G4-quadruplex KRAS DNA 5'- AGGGCGGTGTGGGAAGAGGGAAGAGGGGGAGG-3' incubated for 0.5 hrs by SpectraMax M2 microplate reader analysis; format: nucleic-acid assay
A-375 [2] = assay: Inhibition of DNA synthesis in human A-375 cells at 5 uM incubated for 24 hrs by Edu incorporation based flow cytometry analysis; format: functional, cell-based
Quadruplex DNA [3] = assay: Binding affinity to human G4-quadruplex KRAS DNA 5'- AGGGCGGTGTGGGAAGAGGGAAGAGGGGGAGG-3' at 20 uM by UV-Visible absorption spectroscopic analysis; format: nucleic-acid assay
dsDNA [4] = assay: Binding affinity to double stranded DNA AT15-4AT (unknown origin) incubated for 0.5 hrs in presence of different concentration DNA by fluorescence spectra analysis; format: nucleic-acid assay
Quadruplex DNA [5] = assay: Displacement of ThT from human G4-quadruplex c-kit2 DNA 5'- CGGGCGGGCGCGAGGGAGGGT-3' incubated for 0.5 hrs by SpectraMax M2 microplate reader analysis; format: nucleic-acid assay
dsDNA [6] = assay: Binding affinity to double stranded DNA AT15-6AT (unknown origin) incubated for 0.5 hrs in presence of different concentration DNA by fluorescence spectra analysis; format: nucleic-acid assay
Salmon testes DNA = assay: Displacement of Hoechst 33342 from salmon sperm DNA incubated for 0.5 hrs by SpectraMax M2 microplate reader analysis; format: nucleic-acid assay, Salmo salar
Quadruplex DNA [7] = assay: Displacement of ThT from human G4-quadruplex Bcl2 DNA 5'- CGGGCGCGGGAGGAAGGGGGCGGGAGC-3' incubated for 0.5 hrs by SpectraMax M2 microplate reader analysis; format: nucleic-acid assay
Quadruplex DNA [8] = assay: Binding affinity to human G4-quadruplex Pu27 DNA 5'- TGGGGAGGGTGGGGAGGGTGGGGAAGG-3' assessed as change in fluorescence intensity at 1 uM incubated for 0.5 hrs in presence of different concentrations of DNA by fluorescence spectra analysis; format: nucleic-acid assay
dsDNA [9] = assay: Binding affinity to double stranded DNA ssab3 (unknown origin) incubated for 0.5 hrs in presence of different concentration DNA by fluorescence spectra analysis; format: nucleic-acid assay
Quadruplex DNA [10] = assay: Binding affinity to human G4-quadruplex Oxy28 DNA 5'- GGGGTTTTGGGGTTTTGGGGTTTTGGGG -3' at 20 uM by UV-Visible absorption spectroscopic analysis; format: nucleic-acid assay
Quadruplex DNA [11] = assay: Binding affinity to human G4-quadruplex 22AG DNA 5'- AGGGTTAGGGTTAGGGTTAGGG -3' assessed as change in fluorescence intensity at 1 uM incubated for 0.5 hrs by fluorescence spectra analysis; format: nucleic-acid assay
Quadruplex DNA [12] = assay: Binding affinity to human G4-quadruplex Pu27 DNA 5'- TGGGGAGGGTGGGGAGGGTGGGGAAGG-3' assessed as change in fluorescence intensity at 1 uM incubated for 0.5 hrs by fluorescence spectra analysis; format: nucleic-acid assay
Quadruplex DNA [13] = assay: Binding affinity to human G4-quadruplex c-kit2 DNA 5'- CGGGCGGGCGCGAGGGAGGGT-3' assessed as change in fluorescence intensity at 1 uM incubated for 0.5 hrs in presence of different concentrations of DNA by fluorescence spectra analysis; format: nucleic-acid assay
Quadruplex DNA [14] = assay: Binding affinity to human G4-quadruplex Bcl2 DNA 5'- CGGGCGCGGGAGGAAGGGGGCGGGAGC-3' assessed as change in fluorescence intensity at 1 uM incubated for 0.5 hrs by fluorescence spectra analysis; format: nucleic-acid assay
Quadruplex DNA [15] = assay: Binding affinity to human G4-quadruplex VEGF DNA 5'- GGGCGGGCCGGGGGCGGG-3' assessed as change in fluorescence intensity at 1 uM incubated for 0.5 hrs in presence of different concentrations of DNA by fluorescence spectra analysis; format: nucleic-acid assay
Quadruplex DNA [16] = assay: Binding affinity to human G4-quadruplex Oxy28 DNA 5'- GGGGTTTTGGGGTTTTGGGGTTTTGGGG -3' assessed as change in fluorescence intensity at 1 uM incubated for 0.5 hrs by fluorescence spectra analysis; format: nucleic-acid assay
dsDNA [17] = assay: Binding affinity to double stranded DNA ssab (unknown origin) assessed as change in fluorescence intensity at 1 uM incubated for 0.5 hrs in presence of different concentrations of DNA by fluorescence spectra analysis; format: nucleic-acid assay
A-375 [18] = assay: Induction of apoptosis in human A-375 cells assessed assessed as late apoptotic cells at 5 uM incubated for 24 hrs by Annexin V-Elab Fluor 647/propidium iodide staining based flow cytometry (reference value: 6.31 %); format: functional
Quadruplex DNA [19] = assay: Binding affinity to human G4-quadruplex c-kit2 DNA 5'- CGGGCGGGCGCGAGGGAGGGT-3' assessed as change in fluorescence intensity at 1 uM incubated for 0.5 hrs by fluorescence spectra analysis; format: nucleic-acid assay
dsDNA [20] = assay: Binding affinity to double stranded DNA AT9 (unknown origin) incubated for 0.5 hrs in presence of different concentration DNA by fluorescence spectra analysis; format: nucleic-acid assay
Quadruplex DNA [21] = assay: Binding affinity to human G4-quadruplex Bcl2 DNA 5'- CGGGCGCGGGAGGAAGGGGGCGGGAGC-3' assessed as change in fluorescence intensity at 1 uM incubated for 0.5 hrs in presence of different concentrations of DNA by fluorescence spectra analysis; format: nucleic-acid assay
Quadruplex DNA [22] = assay: Binding affinity to human G4-quadruplex Oxy28 DNA 5'- GGGGTTTTGGGGTTTTGGGGTTTTGGGG -3' at 10 uM by CD spectra analysis; format: nucleic-acid assay
dsDNA [23] = assay: Binding affinity to double stranded DNA ssab (unknown origin) incubated for 0.5 hrs in presence of different concentration DNA by fluorescence spectra analysis; format: nucleic-acid assay
Quadruplex DNA [24] = assay: Binding affinity to human G4-quadruplex KRAS DNA 5'- AGGGCGGTGTGGGAAGAGGGAAGAGGGGGAGG-3' at 10 uM by CD spectra analysis; format: nucleic-acid assay
dsDNA [25] = assay: Binding affinity to double stranded DNA ssab (unknown origin) at 20 uM by UV-Visible absorption spectroscopic analysis; format: nucleic-acid assay
dsDNA [26] = assay: Binding affinity to double stranded DNA AT17 (unknown origin) incubated for 0.5 hrs in presence of different concentration DNA by fluorescence spectra analysis; format: nucleic-acid assay
A-375 [27] = assay: Induction of DNA damage in human A-375 cells assessed as appearance of long DNA tails at 5 uM incubated for 24 hrs by comet assay; format: functional, cell-based
Quadruplex DNA [28] = assay: Displacement of ThT from human G4-quadruplex Oxy28 DNA 5'- GGGGTTTTGGGGTTTTGGGGTTTTGGGG -3' incubated for 0.5 hrs by SpectraMax M2 microplate reader analysis; format: nucleic-acid assay
A-375 [29] = assay: Induction of cell cycle arrest in human A-375 cells assessed assessed as cell accumulation at S phase at 5 uM incubated for 24 hrs by propidium iodide staining based flow cytometry (reference value: 30.05 %); format: functional
Quadruplex DNA [30] = assay: Binding affinity to human G4-quadruplex c-kit2 DNA 5'- CGGGCGGGCGCGAGGGAGGGT-3' at 20 uM by UV-Visible absorption spectroscopic analysis; format: nucleic-acid assay
Quadruplex DNA [31] = assay: Displacement of ThT from human G4-quadruplex VEGF DNA 5'- GGGCGGGCCGGGGGCGGG-3' incubated for 0.5 hrs by SpectraMax M2 microplate reader analysis; format: nucleic-acid assay

## c1c2c(cc3c1OCO3)-c1cc3ccc4c(c3c[n+]1CC2)OCO4 [COPTISINE]
Quadruplex DNA [1]
  DC50: 380 nM
A-375 [2]
  inhibition: inactive
Quadruplex DNA [3]
  Activity: Active
dsDNA [4]
  EC50: 5570 nM
Quadruplex DNA [5]
  DC50: 170 nM
dsDNA [6]
  EC50: 8040 nM
Salmon testes DNA
  DC50: 38100 nM
Quadruplex DNA [7]
  Kd: 350 nM
Quadruplex DNA [8]
  Kd: 2170 nM
dsDNA [9]
  EC50: 5840 nM
Quadruplex DNA [10]
  Activity: Active
Quadruplex DNA [11]
  Activity: Active
Quadruplex DNA [12]
  Activity: Active
Quadruplex DNA [13]
  Kd: 2590 nM
Quadruplex DNA [14]
  Activity: Active
Quadruplex DNA [15]
  Kd: 3390 nM
Quadruplex DNA [16]
  Activity: Active
dsDNA [17]
  Activity: inactive
A-375 [18]
  Activity: 15.3%
Quadruplex DNA [19]
  Activity: Active
dsDNA [20]
  EC50: 7120 nM
Quadruplex DNA [21]
  Kd: 1150 nM
Quadruplex DNA [22]
  Activity: inactive
dsDNA [23]
  EC50: 5570 nM
Quadruplex DNA [24]
  Activity: inactive
dsDNA [25]
  Activity: inactive
dsDNA [26]
  EC50: 7780 nM
A-375 [27]
  Activity: inactive
Quadruplex DNA [28]
  DC50: 580 nM
A-375 [29]
  Activity: 28.21%
Quadruplex DNA [30]
  Activity: Active
Quadruplex DNA [31]
  DC50: 120 nM

## C[n+]1cc2c3c(ccc2c2ccc4cc5c(cc4c21)OCO5)OCO3 [SANGUINARIUM]
Quadruplex DNA [1]
  DC50: 580 nM
A-375 [2]
  inhibition: Active
Quadruplex DNA [3]
  Activity: Active
dsDNA [4]
  EC50: 770 nM
Quadruplex DNA [5]
  DC50: 250 nM
dsDNA [6]
  EC50: 1230 nM
Salmon testes DNA
  DC50: 5700 nM
Quadruplex DNA [7]
  Kd: 440 nM
Quadruplex DNA [8]
  Kd: 7190 nM
dsDNA [9]
  EC50: 1480 nM
Quadruplex DNA [10]
  Activity: Active
Quadruplex DNA [11]
  Activity: Active
Quadruplex DNA [12]
  Activity: Active
Quadruplex DNA [13]
  Activity: inactive
Quadruplex DNA [14]
  Activity: Active
Quadruplex DNA [15]
  Activity: inactive
Quadruplex DNA [16]
  Activity: Active
dsDNA [17]
  Activity: Active
A-375 [18]
  Activity: 49.5%
Quadruplex DNA [19]
  Activity: Active
dsDNA [20]
  Activity: inactive
Quadruplex DNA [21]
  Kd: 11000 nM
Quadruplex DNA [22]
  Activity: inactive
dsDNA [23]
  EC50: 740 nM
Quadruplex DNA [24]
  Activity: inactive
dsDNA [25]
  Activity: Active
dsDNA [26]
  EC50: 2330 nM
A-375 [27]
  Activity: Active
Quadruplex DNA [28]
  DC50: 740 nM
A-375 [29]
  Activity: 31.29%
Quadruplex DNA [30]
  Activity: Active
Quadruplex DNA [31]
  DC50: 140 nM

## COc1ccc2c(c[n+](C)c3c4cc5c(cc4ccc23)OCO5)c1OC [CHELERYTHRINE]
Quadruplex DNA [1]
  DC50: 850 nM
A-375 [2]
  inhibition: Active
Quadruplex DNA [3]
  Activity: Active
dsDNA [4]
  EC50: 1150 nM
Quadruplex DNA [5]
  DC50: 550 nM
dsDNA [6]
  EC50: 1090 nM
Salmon testes DNA
  DC50: 6470 nM
Quadruplex DNA [7]
  Kd: 860 nM
Quadruplex DNA [8]
  Kd: 5290 nM
dsDNA [9]
  EC50: 1290 nM
Quadruplex DNA [10]
  Activity: Active
Quadruplex DNA [11]
  Activity: Active
Quadruplex DNA [12]
  Activity: Active
Quadruplex DNA [13]
  Activity: inactive
Quadruplex DNA [14]
  Activity: Active
Quadruplex DNA [15]
  Activity: inactive
Quadruplex DNA [16]
  Activity: Active
dsDNA [17]
  Activity: Active
A-375 [18]
  Activity: 35.2%
Quadruplex DNA [19]
  Activity: Active
dsDNA [20]
  Activity: inactive
Quadruplex DNA [21]
  Kd: 5800 nM
Quadruplex DNA [22]
  Activity: inactive
dsDNA [23]
  EC50: 1060 nM
Quadruplex DNA [24]
  Activity: inactive
dsDNA [25]
  Activity: Active
dsDNA [26]
  EC50: 3890 nM
A-375 [27]
  Activity: Active
Quadruplex DNA [28]
  DC50: 1150 nM
A-375 [29]
  Activity: 33.02%
Quadruplex DNA [30]
  Activity: Active
Quadruplex DNA [31]
  DC50: 410 nM

## COc1ccc2cc3[n+](cc2c1OC)CCc1cc2c(cc1-3)OCO2 [BERBERINE]
Quadruplex DNA [1]
  DC50: 2640 nM
A-375 [2]
  inhibition: inactive
Quadruplex DNA [3]
  Activity: Active
dsDNA [4]
  EC50: 230 nM
Quadruplex DNA [5]
  DC50: 690 nM
dsDNA [6]
  EC50: 400 nM
Salmon testes DNA
  DC50: 56600 nM
Quadruplex DNA [7]
  Kd: 1840 nM
Quadruplex DNA [8]
  Kd: 5400 nM
dsDNA [9]
  EC50: 230 nM
Quadruplex DNA [10]
  Activity: Active
Quadruplex DNA [11]
  Activity: Active
Quadruplex DNA [12]
  Activity: Active
Quadruplex DNA [13]
  Kd: 4220 nM
Quadruplex DNA [14]
  Activity: Active
Quadruplex DNA [15]
  Kd: 4960 nM
Quadruplex DNA [16]
  Activity: Active
dsDNA [17]
  Activity: inactive
A-375 [18]
  Activity: 7.26%
Quadruplex DNA [19]
  Activity: Active
dsDNA [20]
  Activity: inactive
Quadruplex DNA [21]
  Kd: 2440 nM
Quadruplex DNA [22]
  Activity: inactive
dsDNA [23]
  EC50: 1040 nM
Quadruplex DNA [24]
  Activity: inactive
dsDNA [25]
  Activity: inactive
dsDNA [26]
  EC50: 720 nM
A-375 [27]
  Activity: inactive
Quadruplex DNA [28]
  DC50: 3100 nM
A-375 [29]
  Activity: 28.42%
Quadruplex DNA [30]
  Activity: Active
Quadruplex DNA [31]
  DC50: 580 nM
